Three molecules from patent publication US11008355B2, “Crystal of 3'-sialyllactose sodium salt n-hydrate, and process for producing same” (KYOWA HAKKO BIO CO., LTD., priority 2016, dated 2021) can be followed below.

Data set [1] can be described thus: pH of aqueous solution of the crystal. To be noted: aqueous solution at 50 g/L as a crystal of 3SL sodium salt 8.0-hydrate. The class given is physicochemical. On the procedure: As for the pH, an aqueous solution at 50 g/L as a crystal of 3SL sodium salt 8.0-hydrate was measured. The melting point was measured using Melting Point M-565 (manufactured by BUCHI Corporation) under a condition of 50° C. to 200° C. and 0.5° C./min according to the instruction book.

For data set [2] the following is noted: 30° C., relative humidity of 80%; for Change in weight with lapse of time (in words): up to 8 hours.
Procedure: Storage conditions: 30° C., relative humidity of 80% (apparatus: THE051FA, manufactured by Advantec Toyo Kaisha Ltd.)
Measurement method: After about 100 mg of a sample was weighed with a precision balance, the sample was packed in a glass container and stored under the above-mentioned conditions. Thereafter, the sample was weighed again, and the weight change ratio was calculated.
Incidentally, the weight of the sample at each elapsed time was measured by assuming the weight of each sample at the start of the test to be 100%.
For data set [3] the following is noted: 50° C., relative humidity of 50%, HPLC, wt %.
Procedure: Storage conditions: 50° C., relative humidity of 50% (adjusted with saturated sodium bromide solution)
Measurement method: About 5 g of a sample was weighed with a precision balance, the sample was packed in a glass container, and the amount of impurities (glucose, lactose, sialic acid) after heating was evaluated by HPLC (“%” in Table 5 represents “wt %”).

Structures are written as SMILES. Like-named read-outs stand apart in the source and are kept apart here.

For `CC(=O)NC1C(O)CC(OC2C(O)C(CO)OC(OC3C(CO)OC(O)C(O)C3O)C2O)(C(=O)[O-])OC1C(O)C(O)CO.O.O.O.O.O.O.O.O.[Na+]` (centres unmarked) [Example 2, 3SL sodium salt 8.0-hydrate], the pH in data set [1] came to 6.00. Further, the “Change in weight with lapse of time (in words)” value in data set [2] is “almost no change in weight”. Further, the “Weight of sample (weight at start of test = 100%)” value worked out at 100.0% in data set [2] (elapsed time 0 hours), 100.2% in data set [2] (elapsed time 0.5 hours), 99.9% in data set [2] (elapsed time 2.5 hours) and 99.9% in data set [2] (elapsed time 8 hours). The “Glucose (impurity amount)” value in data set [3] (elapsed days 0) is listed as 0.03%; in data set [3] (elapsed days 2) it was 0.04%; in data set [3] (elapsed days 4), 0.04%. Besides, the figures for the “Lactose (impurity amount)” value in data set [3] (elapsed days 0), in data set [3] (elapsed days 2) and in data set [3] (elapsed days 4) were 0.01%, 0.01% and 0.02%, respectively. Besides, the “Sialic acid (impurity amount)” value in data set [3] (elapsed days 0) was 0.08%; in data set [3] (elapsed days 2) it was 0.10%; in data set [3] (elapsed days 4), 0.09%.
For `CC(=O)N[C@H]1[C@H]([C@H](O)[C@H](O)CO)O[C@@](O[C@H]2[C@@H](O)[C@@H](CO)O[C@@H](O[C@H]3[C@H](O)[C@@H](O)C(O)O[C@@H]3CO)[C@@H]2O)(C(=O)[O-])C[C@@H]1O.[Na+]` (some centres unmarked) [Freeze-dried product, amorphous 3SL sodium, reference compound], the “Glucose (impurity amount)” value in data set [3] (elapsed days 0) amounted to 0.11%; in data set [3] (elapsed days 2), 0.14%; in data set [3] (elapsed days 4) it was 0.16%. Besides, the “Lactose (impurity amount)” value in data set [3] (elapsed days 0) is recorded as 0.02%; in data set [3] (elapsed days 2) it was 0.03%; in data set [3] (elapsed days 4) it was 0.07%. For the same molecule, the “Sialic acid (impurity amount)” value in data set [3] (elapsed days 0) came to 0.14%; in data set [3] (elapsed days 2), 0.21%; in data set [3] (elapsed days 4), 0.26%.
Turning to `CC(=O)N[C@H]1[C@H]([C@H](O)[C@H](O)CO)O[C@@](O[C@H]2[C@@H](O)[C@@H](CO)O[C@@H](O[C@H]3[C@H](O)[C@@H](O)C(O)O[C@@H]3CO)[C@@H]2O)(C(=O)[O-])C[C@@H]1O.[Na+]` (some centres unmarked) [amorphous, 3SL sodium reagent, reference compound], the “Change in weight with lapse of time (in words)” value in data set [2] was “increase in weight”. Moreover, the “Weight of sample (weight at start of test = 100%)” value in data set [2] (elapsed time 0 hours) stood at 100.0%; in data set [2] (elapsed time 0.5 hours), 123.1%; in data set [2] (elapsed time 2.5 hours), 130.5%; in data set [2] (elapsed time 8 hours) it was 130.4%.
